From patent publication US20100184815A1 (priority 2008, published 2010)

How the values were obtained:
Full Length hPPARγ = target: T1, Full Length hPPARγ (Homo sapiens, UniProt P37231); assay: Full length hPPARγ transfection assay; type: cell-based; conditions: full length receptor; scale 1-5; read-out: Full Length hPPAR γ EC50 (scaled number)
T1 construct: Full Length; expressed in transfected cells; host or cells: Cos cells
T1 sequence (P37231 1-505): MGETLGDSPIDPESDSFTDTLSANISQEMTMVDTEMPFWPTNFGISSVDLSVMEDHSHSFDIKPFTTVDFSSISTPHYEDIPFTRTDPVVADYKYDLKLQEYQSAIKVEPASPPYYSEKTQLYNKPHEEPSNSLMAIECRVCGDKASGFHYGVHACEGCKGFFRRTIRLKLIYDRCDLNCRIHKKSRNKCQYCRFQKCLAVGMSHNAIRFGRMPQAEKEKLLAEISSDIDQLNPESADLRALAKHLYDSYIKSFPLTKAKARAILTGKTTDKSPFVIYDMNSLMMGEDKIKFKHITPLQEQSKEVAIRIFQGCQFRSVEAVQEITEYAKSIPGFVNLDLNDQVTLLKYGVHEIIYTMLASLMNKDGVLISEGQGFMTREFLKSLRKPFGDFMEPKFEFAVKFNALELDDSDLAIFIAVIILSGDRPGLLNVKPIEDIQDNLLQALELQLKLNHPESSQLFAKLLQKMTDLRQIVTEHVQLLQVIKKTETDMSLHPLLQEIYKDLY
Procedure: (§1) Transient transfection assays. Cos cells were seeded in 60-mm dishes at a density of 5.5×10^5 cells/dish in Dulbecco's modified Eagle's medium (DMEM) supplemented with 10% fetal calf serum (FCS) and incubated at 37° C. for 24 hours before transfection. Cells were transfected in Opti-MEM (Gibco; Invitrogen, Carlsbad, Calif.) without FCS for 3 hours at 37° C., using polyethylenimine, with reporter and expression plasmids. The plasmid pBluescript (Stratagene, La Jolla, Calif.) was used as carrier DNA to set the final amount of DNA to 5.5 μg/dish. The pCMV-b-galactosidase expression plasmid was cotransfected as a control for transfection efficiency. Transfection was stopped by the addition of DMEM supplemented with 10% FCS, and cells were then incubated at 37° C. After 16 hours, cells were trypsinized and seeded in 96-well plates at the density of 2×10^4 cells/well and incubated for 6 hours in 10% FCS-containing DMEM. Cells were then incubated for 24 hours in DMEM containing 0.2% FCS and increasing concentrations of the compound tested or vehicle (DMSO). At the end of the experiment, cells were washed once with ice-cold PBS, lysed and the luciferase and b-galactosidase assays were performed in a luminometer and spectrophotomer. Transfection efficiencies were normalized with the b-galactosidase activity assay. Half-maximal effective concentration (EC50) was estimated using Prism software (GraphPad). All transfection experiments were performed at least three times.
(§2) In the following tables, proprietary compound EC50 values for hPPAR α, β, δ and γ are shown. The EC50 value is the concentration of a drug that induces a response halfway between the baseline and maximum, and is commonly used as a measure of drug potency. EC50 values are reported on a scale of 1 through 5, wherein the value scale is defined for each receptor as follows: […]

Full Length hPPARβ/δ = target: T2, Full Length hPPARβ/δ (Homo sapiens, UniProt Q03181); assay: Full length hPPARβ/δ transfection assay; type: cell-based; conditions: full length receptor; scale 1-5; read-out: Full Length hPPAR β/δ EC50 (scaled number)
T2 construct: Full Length; expressed in transfected cells; host or cells: Cos cells
T2 sequence (Q03181 1-441): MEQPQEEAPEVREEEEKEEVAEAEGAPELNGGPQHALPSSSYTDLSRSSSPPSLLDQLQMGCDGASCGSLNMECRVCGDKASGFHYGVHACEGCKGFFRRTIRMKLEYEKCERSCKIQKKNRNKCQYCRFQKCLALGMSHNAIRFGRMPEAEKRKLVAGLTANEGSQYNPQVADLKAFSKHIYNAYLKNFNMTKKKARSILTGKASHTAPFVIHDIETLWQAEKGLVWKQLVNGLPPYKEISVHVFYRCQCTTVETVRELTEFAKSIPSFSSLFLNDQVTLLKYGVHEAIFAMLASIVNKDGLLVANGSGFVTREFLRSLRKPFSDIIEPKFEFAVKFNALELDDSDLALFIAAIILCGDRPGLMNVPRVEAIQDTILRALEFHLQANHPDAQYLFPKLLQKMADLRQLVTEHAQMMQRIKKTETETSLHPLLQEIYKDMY
Procedure: as §1, §2

CCCCCCCCn1c(COC(=O)c2ccc(SC(C)(C)C(=O)O)cc2)nn(Cc2ccc(C)cc2)c1=O [Compound 161, 2-methyl-2-(4-(((1-(4-methylbenzyl)-4-octyl-5-oxo-4,5-dihydro-1H-1,2,4-triazol-3-yl)methoxy)carbonyl)phenylthio)propanoic acid]
EC50 (Full Length hPPARγ): 201 to 999 nM | EC50 (Full Length hPPARβ/δ): 201 to 999 nM

CCCCCCn1c(COC(=O)c2ccc(SC(C)(C)C(=O)O)cc2)nn(Cc2ccc(C(C)(C)C)cc2)c1=O [Compound 187, 2-(4-(((1-(4-tert-butylbenzyl)-4-hexyl-5-oxo-4,5-dihydro-1H-1,2,4-triazol-3-yl)methoxy)carbonyl)phenylthio)-2-methylpropanoic acid]
EC50 (Full Length hPPARγ): 51 to 200 nM

CCCCCCn1c(COC(=O)c2ccc(SC(C)(C)C(=O)O)cc2)nn(Cc2ccc(C)cc2)c1=O [Compound 160, 2-(4-(((4-hexyl-1-(4-methylbenzyl)-5-oxo-4,5-dihydro-1H-1,2,4-triazol-3-yl)methoxy)carbonyl)phenylthio)-2-methylpropanoic acid]
EC50 (Full Length hPPARγ): 201 to 999 nM | EC50 (Full Length hPPARβ/δ): 201 to 999 nM

CCCCCCCCn1c(COC(=O)c2ccc(OC(C)(C)C(=O)O)c(OC)c2)nn(Cc2ccc(C)cc2)c1=O [Compound 186, 2-(2-methoxy-4-(((1-(4-methylbenzyl)-4-octyl-5-oxo-4,5-dihydro-1H-1,2,4-triazol-3-yl)methoxy)carbonyl)phenoxy)-2-methylpropanoic acid]
EC50 (Full Length hPPARγ): 51 to 200 nM

CCCCCCCn1c(COC(=O)c2ccc(SC(C)(C)C(=O)O)cc2)nn(Cc2ccc(C)cc2)c1=O [Compound 191, 2-(4-(((4-heptyl-1-(4-methylbenzyl)-5-oxo-4,5-dihydro-1H-1,2,4-triazol-3-yl)methoxy)carbonyl)phenylthio)-2-methylpropanoic acid]
EC50 (Full Length hPPARγ): 51 to 200 nM | EC50 (Full Length hPPARβ/δ): 51 to 200 nM

CCCCCCCn1c(COC(=O)c2ccc(SC(C)(C)C(=O)O)cc2)nn(Cc2ccc(C(C)(C)C)cc2)c1=O [Compound 189, 2-(4-(((1-(4-tert-butylbenzyl)-4-heptyl-5-oxo-4,5-dihydro-1H-1,2,4-triazol-3-yl)methoxy)carbonyl)phenylthio)-2-methylpropanoic acid]
EC50 (Full Length hPPARγ): 51 to 200 nM
